Results on 4 molecules are retold here after patent publication US7067656B2, “Sulfamoyl compounds and agricultural and horticultural fungicides” (Nissan Chemical Industries, Ltd., priority 1997, dated 2006).

For orientation: melting point means the temperature of the solid-liquid transition.

Consider `Cc1c(Cl)c2ccccc2n1S(=O)(=O)c1ncn(S(=O)(=O)N(C)C)n1` [1-33(a), 1-(N,N-dimethylsulfamoyl)-3-(2-methyl-3-chloroindol-1-yl)sulfonyl-1,2,4-triazole], for which the melting point lay within 120 to 122 °C. In turn, `CN(C)S(=O)(=O)n1cnc(S(=O)(=O)n2nc(Cl)c3ccccc32)n1` [7-5(a), 1-(N,N-dimethylsulfamoyl)-3-(3-chloroindazol-1-yl)sulfonyl-1,2,4-triazole] returned a melting point of 164 to 165 °C. Turning to `Cc1c(Cl)c(-c2ccccc2)nn1S(=O)(=O)c1ncn(S(=O)(=O)N(C)C)n1` [8-11(a), 1-(N,N-dimethylsulfamoyl)-3-(3-phenyl-4-chloro-5-methylpyrazol-1-yl)sulfonyl-1,2,4-triazole], the melting point was in the range of 125 to 128 °C. In turn, `CN(C)S(=O)(=O)n1cnc(C(=O)c2ccc(C(F)(F)F)cc2)n1` [11-19(a), 1-dimethylsulfamoyl-3-(4-trifluoromethylbenzoyl)-1,2,4-triazole] had a melting point of 121 to 122 °C.
